# Data as given in publication PMC10239507, “Development of allosteric and selective CDK2 inhibitors for contraception with negative cooperativity to cyclin binding” (Nature Communications, 2023).
# Columns and labels:
# Assay in all cases: biochemical
# [1] = target: T1, 371 kinases (kinase named in each endpoint) (Homo sapiens, UniProt P11309); conditions: PIM1
# T1 construct: purchased Reaction Biology
# [2] = target: T2, 371 kinases (kinase named in each endpoint) (Homo sapiens, UniProt Q16288); conditions: TRKC
# T2 construct: purchased Reaction Biology
# [3] = target: T3, 371 kinases (kinase named in each endpoint) (Homo sapiens, UniProt P19784); conditions: CK2A2
# T3 construct: purchased Reaction Biology
# [4] = target: T4, 371 kinases (kinase named in each endpoint) (Homo sapiens, UniProt O94806); conditions: PKCNU/PRKD3
# T4 construct: purchased Reaction Biology
# T4 sequence (O94806 whole entry): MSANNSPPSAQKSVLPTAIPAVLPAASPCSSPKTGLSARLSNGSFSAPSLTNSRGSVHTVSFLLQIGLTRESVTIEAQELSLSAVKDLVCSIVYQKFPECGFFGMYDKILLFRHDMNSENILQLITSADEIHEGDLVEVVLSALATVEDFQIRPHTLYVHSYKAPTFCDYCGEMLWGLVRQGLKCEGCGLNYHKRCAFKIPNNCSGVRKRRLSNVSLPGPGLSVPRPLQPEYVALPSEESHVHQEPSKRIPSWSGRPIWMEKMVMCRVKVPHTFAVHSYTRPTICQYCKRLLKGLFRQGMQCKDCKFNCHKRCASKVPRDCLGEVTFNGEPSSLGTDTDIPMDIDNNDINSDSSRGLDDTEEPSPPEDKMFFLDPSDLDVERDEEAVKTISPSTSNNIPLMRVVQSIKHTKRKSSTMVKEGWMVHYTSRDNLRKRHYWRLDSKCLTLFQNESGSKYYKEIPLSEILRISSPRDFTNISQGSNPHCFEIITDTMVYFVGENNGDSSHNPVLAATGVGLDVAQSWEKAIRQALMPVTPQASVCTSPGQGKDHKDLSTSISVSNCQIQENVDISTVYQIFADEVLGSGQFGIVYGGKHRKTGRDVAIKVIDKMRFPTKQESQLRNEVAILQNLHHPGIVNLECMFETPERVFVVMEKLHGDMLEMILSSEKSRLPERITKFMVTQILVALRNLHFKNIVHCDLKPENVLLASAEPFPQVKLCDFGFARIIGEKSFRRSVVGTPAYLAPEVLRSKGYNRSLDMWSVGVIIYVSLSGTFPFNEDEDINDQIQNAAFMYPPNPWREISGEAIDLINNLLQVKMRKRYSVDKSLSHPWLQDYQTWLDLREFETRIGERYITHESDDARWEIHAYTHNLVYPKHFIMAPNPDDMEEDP
# [5] = target: T5, 371 kinases (kinase named in each endpoint) (Homo sapiens, UniProt Q13233); conditions: MEKK1
# T5 construct: purchased Reaction Biology
# [6] = target: T6, 371 kinases (kinase named in each endpoint) (Homo sapiens, UniProt Q05655); conditions: PKCD
# T6 construct: purchased Reaction Biology
# T6 sequence (Q05655 whole entry): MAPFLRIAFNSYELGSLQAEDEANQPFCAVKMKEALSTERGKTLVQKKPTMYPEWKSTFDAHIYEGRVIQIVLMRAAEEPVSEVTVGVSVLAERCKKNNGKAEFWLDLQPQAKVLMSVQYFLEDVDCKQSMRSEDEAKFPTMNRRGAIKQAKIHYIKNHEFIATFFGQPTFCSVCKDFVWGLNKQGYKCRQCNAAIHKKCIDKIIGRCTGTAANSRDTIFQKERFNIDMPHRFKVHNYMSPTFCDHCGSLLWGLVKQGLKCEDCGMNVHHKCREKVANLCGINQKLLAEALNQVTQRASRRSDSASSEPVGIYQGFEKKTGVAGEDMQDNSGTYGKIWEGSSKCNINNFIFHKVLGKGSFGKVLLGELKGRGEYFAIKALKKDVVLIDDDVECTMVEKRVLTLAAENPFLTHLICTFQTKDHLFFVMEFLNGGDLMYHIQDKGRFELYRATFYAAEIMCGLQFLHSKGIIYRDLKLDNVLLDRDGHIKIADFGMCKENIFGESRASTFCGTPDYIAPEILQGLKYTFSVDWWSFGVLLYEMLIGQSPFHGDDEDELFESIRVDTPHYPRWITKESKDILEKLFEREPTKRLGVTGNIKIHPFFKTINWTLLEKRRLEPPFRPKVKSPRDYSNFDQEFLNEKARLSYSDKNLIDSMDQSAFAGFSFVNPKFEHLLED
# [7] = target: T7, 371 kinases (kinase named in each endpoint) (Homo sapiens, UniProt O60307); conditions: MAST3
# T7 construct: purchased Reaction Biology
# T7 sequence (O60307 whole entry): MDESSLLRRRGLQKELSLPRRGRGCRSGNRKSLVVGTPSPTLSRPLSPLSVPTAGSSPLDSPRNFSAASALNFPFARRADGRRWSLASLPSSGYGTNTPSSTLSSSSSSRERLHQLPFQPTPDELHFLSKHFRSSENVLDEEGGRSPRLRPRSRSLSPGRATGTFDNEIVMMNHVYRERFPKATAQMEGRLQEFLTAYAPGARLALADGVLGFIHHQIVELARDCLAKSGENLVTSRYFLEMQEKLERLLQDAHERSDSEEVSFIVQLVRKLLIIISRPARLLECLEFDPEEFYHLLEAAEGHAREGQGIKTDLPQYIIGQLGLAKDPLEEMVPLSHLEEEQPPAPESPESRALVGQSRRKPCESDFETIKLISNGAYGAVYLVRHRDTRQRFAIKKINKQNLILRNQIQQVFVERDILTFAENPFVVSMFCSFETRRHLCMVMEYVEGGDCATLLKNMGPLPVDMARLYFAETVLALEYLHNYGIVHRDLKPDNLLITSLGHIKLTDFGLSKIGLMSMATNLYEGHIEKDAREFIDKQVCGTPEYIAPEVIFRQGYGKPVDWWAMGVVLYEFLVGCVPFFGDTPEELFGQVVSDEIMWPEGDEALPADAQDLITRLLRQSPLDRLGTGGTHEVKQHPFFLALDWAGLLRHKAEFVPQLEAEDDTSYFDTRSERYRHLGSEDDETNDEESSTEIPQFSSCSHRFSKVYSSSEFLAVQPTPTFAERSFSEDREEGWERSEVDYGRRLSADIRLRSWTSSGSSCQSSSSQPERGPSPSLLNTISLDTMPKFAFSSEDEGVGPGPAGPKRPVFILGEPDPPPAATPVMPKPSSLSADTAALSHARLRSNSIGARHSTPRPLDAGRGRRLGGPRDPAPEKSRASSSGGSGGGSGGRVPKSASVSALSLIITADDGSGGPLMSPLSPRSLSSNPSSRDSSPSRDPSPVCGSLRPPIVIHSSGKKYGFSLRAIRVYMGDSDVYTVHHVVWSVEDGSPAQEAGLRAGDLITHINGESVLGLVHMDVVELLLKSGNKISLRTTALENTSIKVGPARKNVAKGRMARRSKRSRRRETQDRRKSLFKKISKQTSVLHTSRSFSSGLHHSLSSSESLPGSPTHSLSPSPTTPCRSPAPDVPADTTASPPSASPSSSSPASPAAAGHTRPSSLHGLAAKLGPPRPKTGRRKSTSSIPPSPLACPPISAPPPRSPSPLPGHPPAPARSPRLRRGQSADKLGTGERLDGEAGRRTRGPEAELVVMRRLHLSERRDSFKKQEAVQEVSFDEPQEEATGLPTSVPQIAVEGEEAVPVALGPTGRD
# [8] = target: T8, 371 kinases (kinase named in each endpoint) (Homo sapiens, UniProt P00533); conditions: EGFR
# T8 construct: purchased Reaction Biology
# T8 sequence (P00533 25-1210): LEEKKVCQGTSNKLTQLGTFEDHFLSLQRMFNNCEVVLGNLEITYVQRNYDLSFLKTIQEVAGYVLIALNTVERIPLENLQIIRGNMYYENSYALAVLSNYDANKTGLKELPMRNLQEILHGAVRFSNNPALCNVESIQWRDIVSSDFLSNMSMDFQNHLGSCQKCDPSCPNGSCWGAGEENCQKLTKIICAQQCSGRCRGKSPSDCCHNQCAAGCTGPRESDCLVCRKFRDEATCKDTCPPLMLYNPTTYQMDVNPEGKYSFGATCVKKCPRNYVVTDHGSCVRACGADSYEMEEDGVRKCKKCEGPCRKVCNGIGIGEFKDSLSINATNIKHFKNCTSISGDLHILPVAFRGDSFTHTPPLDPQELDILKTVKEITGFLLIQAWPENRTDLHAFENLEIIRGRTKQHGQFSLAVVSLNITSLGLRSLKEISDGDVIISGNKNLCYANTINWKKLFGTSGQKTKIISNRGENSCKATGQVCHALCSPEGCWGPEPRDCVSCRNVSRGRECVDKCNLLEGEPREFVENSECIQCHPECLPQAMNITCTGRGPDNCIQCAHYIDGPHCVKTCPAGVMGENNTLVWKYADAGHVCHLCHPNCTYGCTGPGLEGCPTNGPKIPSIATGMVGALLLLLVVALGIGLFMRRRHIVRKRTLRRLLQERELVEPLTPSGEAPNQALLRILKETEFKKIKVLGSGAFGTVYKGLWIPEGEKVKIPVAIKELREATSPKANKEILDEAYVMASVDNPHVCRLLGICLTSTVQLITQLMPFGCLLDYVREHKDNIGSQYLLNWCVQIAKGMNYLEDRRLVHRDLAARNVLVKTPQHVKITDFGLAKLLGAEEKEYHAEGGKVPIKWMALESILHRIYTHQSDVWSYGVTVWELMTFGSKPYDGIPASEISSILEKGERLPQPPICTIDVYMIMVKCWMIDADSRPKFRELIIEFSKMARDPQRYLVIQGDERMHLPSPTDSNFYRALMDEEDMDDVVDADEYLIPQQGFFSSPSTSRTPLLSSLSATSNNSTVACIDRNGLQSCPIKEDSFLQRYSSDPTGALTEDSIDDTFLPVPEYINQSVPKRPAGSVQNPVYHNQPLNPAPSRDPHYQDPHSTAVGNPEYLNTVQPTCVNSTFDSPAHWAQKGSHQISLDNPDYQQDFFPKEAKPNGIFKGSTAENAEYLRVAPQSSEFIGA
# [9] = target: T9, 371 kinases (kinase named in each endpoint) (Homo sapiens, UniProt O60285); conditions: ARK5/NUAK1
# T9 construct: purchased Reaction Biology
# T9 sequence (O60285 whole entry): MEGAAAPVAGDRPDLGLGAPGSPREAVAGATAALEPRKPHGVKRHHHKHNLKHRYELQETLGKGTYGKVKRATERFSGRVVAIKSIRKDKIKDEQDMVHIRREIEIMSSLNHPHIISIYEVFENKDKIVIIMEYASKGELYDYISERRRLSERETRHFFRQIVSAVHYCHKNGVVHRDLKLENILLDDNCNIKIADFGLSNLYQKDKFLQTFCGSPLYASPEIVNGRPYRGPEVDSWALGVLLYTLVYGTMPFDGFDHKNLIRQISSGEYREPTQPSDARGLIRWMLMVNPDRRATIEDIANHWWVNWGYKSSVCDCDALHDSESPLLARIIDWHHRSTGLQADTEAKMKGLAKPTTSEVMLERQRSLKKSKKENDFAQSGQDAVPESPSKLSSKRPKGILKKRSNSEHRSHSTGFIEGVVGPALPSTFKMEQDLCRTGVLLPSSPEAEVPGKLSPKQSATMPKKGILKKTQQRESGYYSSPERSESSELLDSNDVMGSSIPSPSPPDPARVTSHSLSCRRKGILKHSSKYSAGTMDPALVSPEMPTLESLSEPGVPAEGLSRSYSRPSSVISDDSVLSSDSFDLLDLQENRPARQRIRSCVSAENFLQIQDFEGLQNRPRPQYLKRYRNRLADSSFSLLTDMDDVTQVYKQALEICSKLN
# T1 sequence (P11309 whole entry): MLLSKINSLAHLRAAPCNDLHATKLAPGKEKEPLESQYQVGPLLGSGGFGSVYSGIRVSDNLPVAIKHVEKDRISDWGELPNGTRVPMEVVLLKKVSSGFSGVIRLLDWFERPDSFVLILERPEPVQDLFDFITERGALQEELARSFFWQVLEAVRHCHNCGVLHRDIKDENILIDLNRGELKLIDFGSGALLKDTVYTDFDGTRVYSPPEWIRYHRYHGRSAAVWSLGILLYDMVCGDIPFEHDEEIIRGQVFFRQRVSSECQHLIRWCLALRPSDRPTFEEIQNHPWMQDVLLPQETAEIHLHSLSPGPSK
compound,measurement,setting,value
"O=C(O)c1cc(C(F)(F)F)ccc1NCCc1c[nH]c2cc(Br)ccc12 [Compound 5, 2-((2-(6-Bromo-1H-indol-3-yl)ethyl)amino)−5-(trifluoromethyl)benzoic Acid]",activity at 10 µM,[1],40.6 ± 3.2%
same,activity at 10 µM,[2],91 ± 0.5%
same,activity at 10 µM,[3],46.9 ± 0.5%
same,activity at 10 µM,[4],139 ± 7.1%
same,activity at 10 µM,[5],110 ± 0.1%
same,activity at 10 µM,[6],54.7 ± 2.7%
same,activity at 10 µM,[7],94.9 ± 0.2%
same,activity at 10 µM,[8],87.8 ± 1%
same,activity at 10 µM,[9],75.5 ± 0.1%
